Assay results taken from patent US20190365675A1, “COMPOSITIONS FOR THE PREVENTION AND/OR TREATMENT OF ALCOHOL USE DISORDERS” (SERVICIO ANDALUZ DE SALUD, priority 2016, published 2019).

Tests used:
Type in all cases: in vivo, Wistar rats
[1] = test system: MyD88; assay: MyD88 protein expression in frontal cortex after ethanol intoxication; conditions: 2-4 h after last ethanol, OEA pre-treatment
Experimental: The animals were treated with intragastric (i.g.) ethanol 3 times a day using an i.g. cannula (16G needle, Fisher Scientific, Waltham, Mass., USA), following a protocol based on a slightly modified standard 4-day alcohol intoxication pattern (Bernier et al., 2002a, b) (FIG. 1A). The ethanol doses were administered every 8 h for a total time of 4 days. The rats treated with ethanol received an initial loading dose of 5 g/kg of ethanol in a 30% solution (w/v) and then a maximum maintenance dose of 3 g/kg, which were determined based on blood ethanol levels (BEL). This repeated standard alcohol intoxication paradigm kept BEL intoxication relatively constant in a range of sedation/ataxia (190 to 430 mg/dl, Table 3), according to the 6-point alcohol intoxication behavior scale (Majchrowicz, 1975). The mean dose of ethanol/rat/day (days 1-4) was 7.06 g/kg, similar to other studies (Obernier et al., 2002a, b). OEA (5 mg/kg, i.p., except initial dose of 10 mg/kg i.p.; synthesized as described in Giuffrida et al., 2000) was dissolved in the vehicle (5% Tween-80 in saline solution) and injected 10 minutes before each of the administrations of ethanol by an intragastric gavage. […] The autoradiograph was quantified by densitometry (NIH ImageJ® software, National Biosciences, Lincoln, Nebr. USA) and expressed as optical density (OD). […]

[2] = test system: control animals; assay: OEA time curve in control animals; conditions: time curve 3 h, 6 h, 24 h; some trends at 3 h (TLR4, p65)
Experimental: A time curve (n=18) was also established with OEA (3 h, 6 h, and 24 h) to rule out any effect in the control animals.

[3] = test system: IL-1β; assay: IL-1β mRNA and protein (ELISA) in frontal cortex and plasma after ethanol intoxication; conditions: OEA pre-treatment
Experimental: The animals were treated with intragastric (i.g.) ethanol 3 times a day using an i.g. cannula (16G needle, Fisher Scientific, Waltham, Mass., USA), following a protocol based on a slightly modified standard 4-day alcohol intoxication pattern (Bernier et al., 2002a, b) (FIG. 1A). The ethanol doses were administered every 8 h for a total time of 4 days. The rats treated with ethanol received an initial loading dose of 5 g/kg of ethanol in a 30% solution (w/v) and then a maximum maintenance dose of 3 g/kg, which were determined based on blood ethanol levels (BEL). This repeated standard alcohol intoxication paradigm kept BEL intoxication relatively constant in a range of sedation/ataxia (190 to 430 mg/dl, Table 3), according to the 6-point alcohol intoxication behavior scale (Majchrowicz, 1975). The mean dose of ethanol/rat/day (days 1-4) was 7.06 g/kg, similar to other studies (Obernier et al., 2002a, b). OEA (5 mg/kg, i.p., except initial dose of 10 mg/kg i.p.; synthesized as described in Giuffrida et al., 2000) was dissolved in the vehicle (5% Tween-80 in saline solution) and injected 10 minutes before each of the administrations of ethanol by an intragastric gavage. The anti-inflammatory activity of OEA at 10 mg/kg per intraperitoneal route in the frontal cortex before the injection of LPS (Sayd et al., 2014) was previously referred to. In this study, OEA is repeatedly injected as a pre-treatment before each administration of ethanol. […] The quantitative changes in mRNA levels were estimated by means of RT-PCR, carried out in the presence of the SYBR green primer using a 20-L reaction in a Rotor-Gene (Corbett Research®, Mortlake, NSW, Australia). […] The levels of soluble HMGB1, TNF-α, IL-1β and MCP-1 were determined by means of a commercially available enzyme-linked immunosorbent assay kit (ELISA) (Elabscience Biotechnology Co., Ltd., China, for HMGB-1; RayBiotech®, GA, USA, for TNF-α, IL-1β, and MCP-1). The nuclear/cytosol HMGB1 fraction was determined by means of Western blot analysis.

[4] = test system: rats; assay: Elevated plus maze test during ethanol withdrawal
Experimental: In this third experiment (n=25), the treatment with ethanol intoxication and pre-treatment with OEA applied in experiment 2 was repeated, and the animals were subjected to elevated plus maze test 24 h and 12 days after the last forced administration of ethanol and to the forced swim test 48 h after the ethanol intoxication protocol. The rats were subjected to the forced swim test two days after the last ethanol force-feeding (see FIG. 1C for the experimental design), and specific behaviors were recorded with a digital video camera for 5 minutes. These same rats were also subjected to the elevated plus maze test equipped with infrared light photography (Panlab, Barcelona, Spain) 1 and 12 days after the last ethanol force-feeding, where the animals were allowed to freely explore the maze for 5 minutes. The tests were performed 3 h after the start of the dark phase.

For CCCCCCCC/C=C\CCCCCCCC(=O)NCCO [OEA, oleoylethanolamide], the “Ethanol-induced increase in expression of MyD88 protein” value [1] was “inhibited”, the “Effect of OEA on the parameters in control animals” value [2] was “did not significantly modify” and the “Ethanol-induced increase in IL-1β protein levels” value ([3]; frontal cortex, ELISA) was “prevented”. The “Ethanol-induced increase in IL-1β mRNA” value ([3]; frontal cortex) was “did not prevent”, the “Ethanol-induced increase in IL-1β plasma levels” value ([3]; plasma, ELISA) was “prevented” and the “Elevated plus maze: percentage of entries and time in the open arms” value ([4]; 24 h after ethanol intoxication, Dunn's post-hoc test did not find significant effects) was “clear trend that shows a clear anxiolytic effect”. For the same compound, the “Elevated plus maze: percentage of entries and time in the open arms” value ([4]; 12 days after ethanol intoxication) was “not significant”.
